In article PMC4860824, “Targeting the γ-/β-secretase interaction reduces β-amyloid generation and ameliorates Alzheimer’s disease-related pathogenesis” (Cell Discovery, 2015):

Target: T1, presenilin-1 (PS1) (Homo sapiens, UniProt P49768)
T1 construct: gene PSEN1; PS1-NTF
Experiment: dose-dependent competition with XYT1032 photo-affinity labelling in HEK293T cells ([…])
Type: cell-based

C=C1CCC2(C(=O)O)CC[C@]3(C)C(=CC[C@H]4C3(C)CC[C@H]3C(C)(C)[C@H](O)CC[C@@]34C)[C@@H]2C1 (stereo partly drawn) [3AA, 3-α-Akebonoic acid]
dose-dependent competition with XYT1032 photo-affinity labelling in HEK293T cell: in the presence of XYT472B or 3AA, the labeling of PS1-NTF was decreased dose dependently
